Data published in patent publication US6566355B1 (Hoffmann-La Roche Inc., priority 1991, dated 2003).
Read-outs that look alike come from different tables or passages of the source.

Tests used:
β-lactamase = molecular target: T1, β-lactamase (Citrobacter freundii, UniProt P05193); assay: biochemical
T1 construct: Various β-lactamases can be isolated from penicillin- or cephalosporin-resistant bacterial strains such as; endogenous in cells; host or cells: Citrobacter freundii 1203 (enzyme purified from the crude cell extract, after ampicillin induction when necessary)
How it was run: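 β-lactamase from C. freundii 1203 crude extract (French press, 20 mM Tris-HCl pH 7.0) assayed with 0.1 mM nitrocefin in 50 mM phosphate pH 7.0 at 37° C, enzyme set to ΔA/min about 0.1, read at 482 nm. IC50 is inhibitor concentration giving 50% inhibition of nitrocefin cleavage, determined graphically.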

Citrobacter freundii = assay: MIC in vitro of a 1:4 combination of ceftriaxone with a compound of formula I (test D); type: cell-based; settings: 1:4 combination of ceftriaxone with the compound
Description: D. Determination of the β-lactamase-inhibiting activity by combination of a compound of general formula I with ceftriaxone
The minimum inhibitory concentration in vitro (MIC in μg/ml) of a 1:4 combination of ceftriaxone with a compound of formula I against Citrobacter freundii is measured and compiled in Table 2 hereinafter.

T1 sequence (P05193 21-381): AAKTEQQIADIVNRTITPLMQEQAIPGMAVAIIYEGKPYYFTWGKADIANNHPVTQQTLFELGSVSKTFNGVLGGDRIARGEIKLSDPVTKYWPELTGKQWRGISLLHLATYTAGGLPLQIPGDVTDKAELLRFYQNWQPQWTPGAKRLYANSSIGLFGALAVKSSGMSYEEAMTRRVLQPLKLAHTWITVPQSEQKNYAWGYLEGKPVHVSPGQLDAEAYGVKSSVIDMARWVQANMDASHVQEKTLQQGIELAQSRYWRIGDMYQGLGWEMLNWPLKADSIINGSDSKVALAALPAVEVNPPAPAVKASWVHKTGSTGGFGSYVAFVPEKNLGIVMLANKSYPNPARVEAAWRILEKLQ

`N[C@@H](C(=O)N1CC[C@@H]2[C@H]1C(=O)N2S(=O)(=O)O)c1ccc(O)cc1` [6(d), (1S,5R)-2-[D-2-(p-Hydroxyphenyl)glycyl]-7-oxo-2,6-diazabicyclo[3.2.0]-heptane-6-sulphonic acid] was tested, and the IC50 (β-lactamase) was 500 nM and the “MIC” value (Citrobacter freundii) was 2 µg/mL.
With `CCN(CC)CC.O=C(/C=C/c1c[nH]c2ccccc12)N1CC[C@@H]2[C@H]1C(=O)N2S(=O)(=O)O` [6(f), (1S,5R)-2-[(E)-3-(3-Indolyl)acryloyl]-7-oxo-2,6-diazabicyclo[3.2.0]heptane-6-sulphonic acid triethylamine salt (1:1)] the IC50 (β-lactamase; isolated β-lactamase of Citrobacter freundii, substrate nitrocefin 0.1 mM, 15 minutes pre-incubation with inhibitor, 37° C., pH 7.0, read-out: IC 50 nM) was 11 nM and the “MIC” value (Citrobacter freundii) was 4 µg/mL.
